Each molecule was assayed on beta-TC6 cells (assay: Insulin HTRF assay (relative activity Ar) in beta-TC6 cells). Settings: Mus musculus, Beta-TC6, 4 h, insulin HTRF, supernatant of beta-TC6 cells, incubation with test compound at 37°C for 2, 3, 4h; read-out: Ar (relative activity).
Type: cell-based, mouse
How it was run: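 beta-TC6 cells (15k/well, seeded 24 or 48 h) washed, then exposed to compound in induction buffer (0.5% DMSO final) for 2, 3 or 4 h at 37°C.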
`CC(=O)Nc1ccc(Nc2cc3c(cn2)nc(Cc2ccccc2)n3C)cc1` [Compound 700, N-[4-[(2-benzyl-1-methyl-imidazo[4,5-c]pyridin-6-yl)amino]phenyl]acetamide] was tested, and the Emax was 50 to 100%. For `COc1cc(Nc2cc3c(cn2)nc(-c2ccccc2)n3C)cc(OC)c1OC` [Compound 701, 1-methyl-2-phenyl-N-(3,4,5-trimethoxyphenyl)imidazo[4,5-c]pyridin-6-amine], the Emax was 50 to 100%. With `CC(=O)Nc1ccc(Nc2cc3c(cn2)nc(-c2ccccc2)n3C)cc1` [Compound 702, N-[4-[(1-methyl-2-phenyl-imidazo[4,5-c]pyridin-6-yl)amino]phenyl]acetamide] the Emax was 50 to 100%. In the case of `COc1ccc(Nc2cc3c(cn2)nc(-c2ccccc2)n3C)c(OC)c1` [Compound 703, N-(2,4-dimethoxyphenyl)-1-methyl-2-phenyl-imidazo[4,5-c]pyridin-6-amine], the Emax is reported as 30 to 50%. `COc1ccc(Nc2cc3c(cn2)nc(-c2ccccc2)n3C)cn1` [Compound 704, N-(6-methoxy-3-pyridyl)-1-methyl-2-phenyl-imidazo[4,5-c]pyridin-6-amine] gave an Emax of 30 to 50%. With `COc1ccc(Nc2cc3c(cn2)nc(-c2ccccc2)n3C)cc1` [Compound 705, N-(4-methoxyphenyl)-1-methyl-2-phenyl-imidazo[4,5-c]pyridin-6-amine] the Emax was 30 to 50%. Work on `Cn1c(-c2ccccc2)nc2cnc(Nc3ccc4c(c3)OCO4)cc21` [Compound 706, N-(1,3-benzodioxol-5-yl)-1-methyl-2-phenyl-imidazo[4,5-c]pyridin-6-amine] yielded an Emax of 50 to 100%. For `COc1cc(Nc2cc3c(cn2)nc(-c2ccco2)n3C)cc(OC)c1OC` [Compound 707, 2-(2-furyl)-1-methyl-N-(3,4,5-trimethoxyphenyl)imidazo[4,5-c]pyridin-6-amine], the Emax was over 100%. With `CC(=O)Nc1ccc(Nc2cc3c(cn2)nc(-c2ccco2)n3C)cc1` [Compound 708, N-[4-[[2-(2-furyl)-1-methyl-imidazo[4,5-c]pyridin-6-yl]amino]phenyl]acetamide] the Emax was over 100%. `Cc1cccc(Nc2cc3c(cn2)nc(-c2ccco2)n3C)c1` [Compound 709, 2-(2-furyl)-1-methyl-N-(m-tolyl)imidazo[4,5-c]pyridin-6-amine] gave an Emax of 50 to 100%. With `Cn1c(-c2ccco2)nc2cnc(Nc3ccccc3Cl)cc21` [Compound 710, N-(2-chlorophenyl)-2-(2-furyl)-1-methyl-imidazo[4,5-c]pyridin-6-amine] the Emax was 30 to 50%. With `CN(C)C(=O)c1ccc(Nc2cc3c(cn2)nc(-c2ccco2)n3C)cc1` [Compound 711, 4-[[2-(2-furyl)-1-methyl-imidazo[4,5-c]pyridin-6-yl]amino]-N,N-dimethyl-benzamide] the Emax was 50 to 100%. `CC(=O)Nc1cccc(Nc2cc3c(cn2)nc(-c2ccco2)n3C)c1` [Compound 712, N-[3-[[2-(2-furyl)-1-methyl-imidazo[4,5-c]pyridin-6-yl]amino]phenyl]acetamide] was tested, and the Emax was 50 to 100%. `CC(=O)Nc1ccc(Nc2cc3c(cn2)nc(-c2cccc(F)c2)n3C)cc1` [Compound 713, N-[4-[[2-(3-fluorophenyl)-1-methyl-imidazo[4,5-c]pyridin-6-yl]amino]phenyl]acetamide] was tested, and the Emax was 50 to 100%. `Cn1c(-c2cccc(F)c2)nc2cnc(Nc3ccc4c(c3)OCO4)cc21` [Compound 714, N-(1,3-benzodioxol-5-yl)-2-(3-fluorophenyl)-1-methyl-imidazo[4,5-c]pyridin-6-amine] gave an Emax of 50 to 100%. Work on `CN(C)C(=O)c1ccc(Nc2cc3c(cn2)nc(-c2cccc(F)c2)n3C)cc1` [Compound 715, 4-[[2-(3-fluorophenyl)-1-methyl-imidazo[4,5-c]pyridin-6-yl]amino]-N,N-dimethyl-benzamide] yielded an Emax of 30 to 50%. `COc1ccc(-c2nc3cnc(Nc4cc(OC)c(OC)c(OC)c4)cc3n2C)cc1OC` [Compound 716, 2-(3,4-dimethoxyphenyl)-1-methyl-N-(3,4,5-trimethoxyphenyl)imidazo[4,5-c]pyridin-6-amine] gave an Emax of 50 to 100%. Molecule `COc1ccc(-c2nc3cnc(Nc4ccc(NC(C)=O)cc4)cc3n2C)cc1OC` [Compound 717, N-[4-[[2-(3,4-dimethoxyphenyl)-1-methyl-imidazo[4,5-c]pyridin-6-yl]amino]phenyl]acetamide] has an Emax of 50 to 100%. In the case of `COc1cccc(Nc2cc3c(cn2)nc(-c2ccc(OC)c(OC)c2)n3C)c1` [Compound 718, 2-(3,4-dimethoxyphenyl)-N-(3-methoxyphenyl)-1-methyl-imidazo[4,5-c]pyridin-6-amine], the Emax is reported as 50 to 100%. `COc1ccc(-c2nc3cnc(Nc4ccc(C(N)=O)cc4)cc3n2C)cc1OC` [Compound 719, 4-[[2-(3,4-dimethoxyphenyl)-1-methyl-imidazo[4,5-c]pyridin-6-yl]amino]benzamide] showed an Emax of 30 to 50%. Molecule `COc1ccc(Nc2cc3c(cn2)nc(-c2ccc(OC)c(OC)c2)n3C)c(C)c1` [Compound 720, 2-(3,4-dimethoxyphenyl)-N-(4-methoxy-2-methyl-phenyl)-1-methyl-imidazo[4,5-c]pyridin-6-amine] has an Emax of 30 to 50%. With `COc1ccc(Nc2cc3c(cn2)nc(-c2ccc(OC)c(OC)c2)n3C)cc1` [Compound 721, 2-(3,4-dimethoxyphenyl)-N-(4-methoxyphenyl)-1-methyl-imidazo[4,5-c]pyridin-6-amine] the Emax was 50 to 100%. `COc1ccc(-c2nc3cnc(Nc4ccc5c(c4)OCO5)cc3n2C)cc1OC` [Compound 722, N-(1,3-benzodioxol-5-yl)-2-(3,4-dimethoxyphenyl)-1-methyl-imidazo[4,5-c]pyridin-6-amine] was tested, and the Emax was 30 to 50%. `COc1ccc(Nc2cc3c(cn2)nc(-c2ccc(OC)c(OC)c2)n3C)cc1O` [Compound 723, 5-[[2-(3,4-dimethoxyphenyl)-1-methyl-imidazo[4,5-c]pyridin-6-yl]amino]-2-methoxy-phenol] showed an Emax of over 100%. In the case of `COc1cc(Nc2cc3c(cn2)nc(-c2ccncc2)n3C)cc(OC)c1OC` [Compound 724, 1-methyl-2-(4-pyridyl)-N-(3,4,5-trimethoxyphenyl)imidazo[4,5-c]pyridin-6-amine], the Emax is reported as 30 to 50%. `COc1cc(Nc2cc3c(cn2)ncn3C)cc(OC)c1OC` [Compound 725, 1-methyl-N-(3,4,5-trimethoxyphenyl)imidazo[4,5-c]pyridin-6-amine] was tested, and the Emax was 30 to 50%. In the case of `CC(=O)Nc1ccc(Nc2cc3c(cn2)ncn3C)cc1` [Compound 726, N-[4-[(1-methylimidazo[4,5-c]pyridin-6-yl)amino]phenyl]acetamide], the Emax is reported as 50 to 100%. With `COc1ccc(Nc2cc3c(cn2)ncn3C)c(OC)c1` [Compound 727, N-(2,4-dimethoxyphenyl)-1-methyl-imidazo[4,5-c]pyridin-6-amine] the Emax was 50 to 100%. For `COc1cc(Nc2cc3c(cn2)nc(Cc2cccnc2)n3C)cc(OC)c1OC` [Compound 729, 1-methyl-2-(3-pyridylmethyl)-N-(3,4,5-trimethoxyphenyl)imidazo[4,5-c]pyridin-6-amine], the Emax was 30 to 50%. With `COc1ccc(Cn2cnc3cnc(Nc4ccc(NC(C)=O)cc4)cc32)cc1OC` [Compound 730, N-[4-[[1-[(3,4-dimethoxyphenyl)methyl]imidazo[4,5-c]pyridin-6-yl]amino]phenyl]acetamide] the Emax was 50 to 100%. With `COc1ccc(Cn2cnc3cnc(Nc4ccc5c(c4)OCO5)cc32)cc1OC` [Compound 731, N-(1,3-benzodioxol-5-yl)-1-[(3,4-dimethoxyphenyl)methyl]imidazo[4,5-c]pyridin-6-amine] the Emax was 50 to 100%. In the case of `COc1cc(-n2cnc3cnc(-c4cccc(C(N)=O)c4)cc32)cc(OC)c1OC` [Compound 732, 3-[1-(3,4,5-trimethoxyphenyl)imidazo[4,5-c]pyridin-6-yl]benzamide], the Emax is reported as 30 to 50%. `Fc1cccc(-c2cc3c(cn2)ncn3-c2ccccc2)c1` [Compound 733, 6-(3-fluorophenyl)-1-phenyl-imidazo[4,5-c]pyridine] was tested, and the Emax was 30 to 50%. `COc1ccc(-c2cc3c(cn2)ncn3-c2cccc(C(F)(F)F)c2)cc1OC` [Compound 734, 6-(3,4-dimethoxyphenyl)-1-[3-(trifluoromethyl)phenyl]imidazo[4,5-c]pyridine] showed an Emax of 30 to 50%. For `Cn1c(-c2ccccc2)nc2cnc(-c3ccc(N)nc3)cc21` [Compound 735, 5-(1-methyl-2-phenyl-imidazo[4,5-c]pyridin-6-yl)pyridin-2-amine], the Emax was 30 to 50%. In the case of `Cn1c(-c2ccco2)nc2cnc(-c3cccc(O)c3)cc21` [Compound 736, 3-[2-(2-furyl)-1-methyl-imidazo[4,5-c]pyridin-6-yl]phenol], the Emax is reported as 50 to 100%. Molecule `COc1ccc(Cn2cnc3cnc(-c4cccnc4)cc32)cc1OC` [Compound 737, 1-[(3,4-dimethoxyphenyl)methyl]-6-(3-pyridyl)imidazo[4,5-c]pyridine] has an Emax of 50 to 100%. `COc1ccc(Cn2cnc3cnc(-c4cc(OC)c(OC)c(OC)c4)cc32)cc1OC` [Compound 738, 1-[(3,4-dimethoxyphenyl)methyl]-6-(3,4,5-trimethoxyphenyl)imidazo[4,5-c]pyridine] was tested, and the Emax was 30 to 50%. For `COc1cc(-c2cc3c(cn2)ncn3Cc2ccc(OC)c(OC)c2)ccc1O` [Compound 739, 4-[1-[(3,4-dimethoxyphenyl)methyl]imidazo[4,5-c]pyridin-6-yl]-2-methoxy-phenol], the Emax was 30 to 50%. In the case of `CN(C)c1cccc(-c2cc3c(cn2)ncn3-c2cccc(F)c2)c1` [Compound 740, 3-[1-(3-fluorophenyl)imidazo[4,5-c]pyridin-6-yl]-N,N-dimethyl-aniline], the Emax is reported as 50 to 100%. `Sc1nc2cnccc2n1-c1ccccc1` [Compound 741, 1-phenylimidazo[4,5-c]pyridine-2-thiol] was tested, and the Emax was 50 to 100%. Molecule `c1ccc(-c2nc3cnccc3[nH]2)nc1` [Compound 742, 2-(2-pyridyl)-1H-imidazo[4,5-c]pyridine] has an Emax of 30 to 50%. `c1csc(-c2nc3ccncc3[nH]2)c1` [Compound 743, 2-(2-thienyl)-3H-imidazo[4,5-c]pyridine] was tested, and the Emax was 30 to 50%.

Same assay, conditions: insulin HTRF, supernatant of beta-TC6 cells, incubation with test compound at 37°C for 2, 3, 4h
With `Sc1nc2cnccc2n1-c1ccccc1` [Compound 744, 1-phenylimidazo[4,5-c]pyridine-2-thiol] the “Ar (relative activity)” value was “++ (30 % ≤ Ar < 50 %)”.
